From US4559323A, “A41030 Antibiotics” (Eli Lilly and Company, priority 1984, dated 1985)
Converted amounts (≈) assume the structure as drawn. Where two headings read alike, the source gives them in different places.

Tests used:
B. thetaiotaomicron = assay type: cell-based
Description: The agar-dilution procedure described by the International Collaborative study (ICS) group was used to determine the minimum inhibitory concentrations (MIC's).

[1] = Electrometric titration (pKa); assay type: physicochemical; conditions: electrometric titration in 66% dimethylformamide in water
[2] = system: Peptostreptococcus anaerobius; assay: Agar-dilution MIC (anaerobes); assay type: cell-based
Bacteroides corrodens [3] = assay: Agar-dilution MIC (anaerobes); assay type: cell-based; conditions: Table 14; Bacteroides corrodens 1874
Bacteroides vulgatis [4] = assay: Agar-dilution MIC (anaerobes); assay type: cell-based; conditions: Table 14; Bacteroides vulgatis 1211
Peptococcus prevoti = assay: Agar-dilution MIC (anaerobes); assay type: cell-based
Salmonella typhi = assay: Agar-dilution MIC; assay type: cell-based; conditions: Table 17, 24 hours
Solubility in solvents = assay type: physicochemical; conditions: solvents as named
Description: The seven antibiotic factors are recovered from the fermentation and are obtained as a mixture, the A41030 complex. It will be recognized that the ratio of the factors in the A41030 complex will vary, depending upon the fermentation conditions used. The individual factors […], and G are separated and isolated as individual compounds, as hereinafter described.

Fusobacterium symbiosum = assay: Agar-dilution MIC (anaerobes); assay type: cell-based; conditions: Table 14; Fusobacterium symbiosum 1470
[5] = system: Peptococcus asaccharolyticus; assay: Agar-dilution MIC (anaerobes); assay type: cell-based; conditions: Table 15
Procedure: (§1) The MIC values were determined by the agar-dilution method, and are recorded in Table 15, which follows.

Clostridium septicum = assay: Agar-dilution MIC (anaerobes); assay type: cell-based; conditions: Table 14; Clostridium septicum 1128
[6] = system: Bacteroides melaninogenicus; assay: Agar-dilution MIC (anaerobes); assay type: cell-based; conditions: Table 14; Bacteroides melaninogenicus 2736
Pc. constellatus = assay: Agar-dilution MIC (anaerobes); assay type: cell-based, Peptococcus constellatus; conditions: Table 15; Pc. constellatus 1468
Procedure: as §1

S. pyogenes [7] = assay: In vivo oral activity against S. pyogenes in mice
Clostridium perfringens = assay type: cell-based; conditions: Table 14; Clostridium perfringens 81
Clostridium difficile [8] = assay type: cell-based; conditions: Table 14; Clostridium difficile 2994
Bacteroides vulgatis [9] = assay: Agar-dilution MIC (anaerobes); assay type: cell-based; conditions: Table 12; 24-hour; B. vulgatis 1563
Description: (§2) The A41030 antibiotics, factors A, B, and C, are active against a genus of anaerobic bacteria identified as Bacteroides sp., the 24-hour MIC values being determined by the agar-dilution method, and are set forth in Table 12, which follows.

Bacteroides corrodens [10] = assay: Agar-dilution MIC (anaerobes); assay type: cell-based; conditions: Table 12; 24-hour; B. corrodens 1874
Description: as §2

[11] = system: Fusobacterium necrophorum; assay: Agar-dilution MIC (anaerobes); assay type: cell-based; conditions: Table 14; Fusobacterium necrophorum 6054A
Hemophilus influenzae = assay: Agar-dilution MIC; assay type: cell-based
S. pyogenes [12] = assay: Experimental bacterial infection in mice, subcutaneous ED50; assay type: in vivo; conditions: two doses subcutaneously
Procedure: (§3) All of the A41030 factors tested have shown in vivo antimicrobial activity against experimental bacterial infections. When two doses of test compound were administered subcutaneously to mice in illustrative infections, the activity observed is measured as an ED50 value [effective dose in mg./kg. to protect fifty percent of the test animals: See Warren Wick, et al., J. Bacteriol. 81, 233-235 (1961)].

S. pneumoniae = assay: as above; assay type: in vivo; conditions: two doses subcutaneously
Procedure: as §3

Staph. aureus = assay: as above; assay type: in vivo; conditions: two doses subcutaneously
Procedure: as §3

[13] = system: Peptostreptococcus intermedius; assay: Agar-dilution MIC (anaerobes); assay type: cell-based
Clostridium difficile [14] = assay type: cell-based; conditions: Table 16
Description: The A41030 antibiotic factors A, B, C, D, E, F, and G, are also active against a number of strains of Clostridium difficile, as determined by the agar-dilution method.

## NC1C(=O)NC2Cc3ccc(c(Cl)c3)Oc3cc4cc(c3O)Oc3ccc(cc3Cl)C(O)C3NC(=O)C(NC(=O)C4NC(=O)C(NC2=O)c2cc(O)cc(c2)Oc2cc1ccc2O)c1cc(Cl)c(O)c(c1)-c1c(O)cc(O)cc1C(C(=O)O)NC3=O (stereo not drawn) [A41030 factor A]
B. thetaiotaomicron; Table 12, 24-hour, B. thetaiotaomicron 1438
  MIC: 64 µg/mL (≈ 51.9 µM)
B. thetaiotaomicron; Table 12, 24-hour, B. thetaiotaomicron 1900A
  MIC: 128 µg/mL (≈ 104 µM)
B. thetaiotaomicron; Table 14, Bacteroides thetalotaomicron 1438
  MIC: 64 µg/mL (≈ 51.9 µM)
[1]
  pKa, first titratable group: about 5.53
  pKa, second titratable group: ~7.60
  pKa, third titratable group: ~10.37
[2]; Table 14, Peptostreptococcus anaerobius 1428
  MIC: ≤ 0.25 µg/mL
[2]; Table 15, Ps. anaerobius 8
  MIC: 0.5 µg/mL (≈ 0.405 µM)
[2]; Table 15, Ps. anaerobius 52
  MIC: 0.5 µg/mL (≈ 0.405 µM)
[2]; Table 15, Ps. anaerobius 59
  MIC: 0.5 µg/mL (≈ 0.405 µM)
[2]; Table 15, Ps. anaerobius 1418
  MIC: ≤ 0.03 µg/mL
[2]; Table 15, Ps. anaerobius 1428
  MIC: 0.5 µg/mL (≈ 0.405 µM)
[2]; Table 15, Ps. anaerobius 1451
  MIC: 0.5 µg/mL (≈ 0.405 µM)
[2]; Table 15, Ps. anaerobius 1477
  MIC: 0.5 µg/mL (≈ 0.405 µM)
Bacteroides corrodens [3]
  MIC: 64 µg/mL (≈ 51.9 µM)
Bacteroides vulgatis [4]
  MIC: 32 µg/mL (≈ 25.9 µM)
Peptococcus prevoti; Table 14, Peptococcus prevoti 1281
  MIC: ≤ 0.25 µg/mL
Peptococcus prevoti; Table 15, Pc. prevoti 1281
  MIC: 0.5 µg/mL (≈ 0.405 µM)
Peptococcus prevoti; Table 15, Pc. prevoti 1293
  MIC: 1.0 µg/mL (≈ 0.811 µM)
Peptococcus prevoti; Table 15, Pc. prevoti 1407
  MIC: 1.0 µg/mL (≈ 0.811 µM)
Salmonella typhi; Salmonella typhi 1335
  MIC: > 128 µg/mL
Salmonella typhi; Salmonella typhi X514
  MIC: > 128 µg/mL
Solubility in solvents
  Solubility: soluble in alcohol-water mixtures, in dimethylsulfoxide, in dimethylformamide, in dimethylsulfoxide-water mixtures, in dimethylformamide-water mixtures, in dilute aqueous acid, and in dilute aqueous base
Fusobacterium symbiosum
  MIC: 1.0 µg/mL (≈ 0.811 µM)
[5]; Pc. asaccharolyticus 1302
  MIC: ≤ 0.03 µg/mL
[5]; Pc. asaccharolyticus 1344
  MIC: 0.5 µg/mL (≈ 0.405 µM)
Clostridium septicum
  MIC: 2 µg/mL (≈ 1.62 µM)
[6]
  MIC: 4 µg/mL (≈ 3.24 µM)
Pc. constellatus
  MIC: 0.5 µg/mL (≈ 0.405 µM)
S. pyogenes [7]
  in vivo oral activity: > 300 mg./kg.X2
Clostridium perfringens
  MIC: 0.5 µg/mL (≈ 0.405 µM)
Clostridium difficile [8]
  MIC: 32 µg/mL (≈ 25.9 µM)
Bacteroides vulgatis [9]
  MIC: 32 µg/mL (≈ 25.9 µM)
Bacteroides corrodens [10]
  MIC: 32 µg/mL (≈ 25.9 µM)
[11]
  MIC: 8 µg/mL (≈ 6.49 µM)
Hemophilus influenzae; Table 9, strain 75-312
  MIC: 8 µg/mL (≈ 6.49 µM)
Hemophilus influenzae; Table 9, strain 75-313
  MIC: 16 µg/mL (≈ 13 µM)
Hemophilus influenzae; Table 9, strain 75-364
  MIC: 16 µg/mL (≈ 13 µM)
Hemophilus influenzae; Table 9, strain 75-465
  MIC: 32 µg/mL (≈ 25.9 µM)
Hemophilus influenzae; Table 9, strain 75-19300
  MIC: 16 µg/mL (≈ 13 µM)
Hemophilus influenzae; Table 9, strain 75-90383
  MIC: 16 µg/mL (≈ 13 µM)
Hemophilus influenzae; Table 9, strain 4842
  MIC: 8 µg/mL (≈ 6.49 µM)
Hemophilus influenzae; Table 9, strain A. Hall
  MIC: 16 µg/mL (≈ 13 µM)
Hemophilus influenzae; Table 9, strain Bruno
  MIC: 16 µg/mL (≈ 13 µM)
Hemophilus influenzae; Table 9, strain G. Newton
  MIC: 32 µg/mL (≈ 25.9 µM)
Hemophilus influenzae; Table 9, strain Howard
  MIC: 16 µg/mL (≈ 13 µM)
Hemophilus influenzae; Table 9, strain Miller
  MIC: 16 µg/mL (≈ 13 µM)
Hemophilus influenzae; Table 9, strain O. Steele
  MIC: 16 µg/mL (≈ 13 µM)
Hemophilus influenzae; Table 9, strain P. Wylie
  MIC: 16 µg/mL (≈ 13 µM)
Hemophilus influenzae; Table 9, strain R251
  MIC: 16 µg/mL (≈ 13 µM)
Hemophilus influenzae; Table 9, strain R259
  MIC: 16 µg/mL (≈ 13 µM)
Hemophilus influenzae; Table 9, strain R272
  MIC: 16 µg/mL (≈ 13 µM)
Hemophilus influenzae; Table 9, strain R274
  MIC: 16 µg/mL (≈ 13 µM)
Hemophilus influenzae; Table 9, strain S. Ford
  MIC: 16 µg/mL (≈ 13 µM)
Hemophilus influenzae; Table 17, 24 hours, Haemophilus influenzae 251
  MIC: 2 µg/mL (≈ 1.62 µM)
Hemophilus influenzae; Table 17, 24 hours, Haemophilus influenzae Brun
  MIC: 8 µg/mL (≈ 6.49 µM)
Hemophilus influenzae; Table 18, 24 hours, Haemophilus influenzae 76
  MIC: 4 µg/mL (≈ 3.24 µM)
Hemophilus influenzae; Table 18, 24 hours, Haemophilus influenzae 312
  MIC: 2 µg/mL (≈ 1.62 µM)
Hemophilus influenzae; Table 18, 24 hours, Haemophilus influenzae 4842
  MIC: 2 µg/mL (≈ 1.62 µM)
Hemophilus influenzae; Table 18, 24 hours, Haemophilus influenzae 16836
  MIC: 4 µg/mL (≈ 3.24 µM)
Hemophilus influenzae; Table 18, 24 hours, Haemophilus influenzae Bond
  MIC: 2 µg/mL (≈ 1.62 µM)
Hemophilus influenzae; Table 18, 24 hours, Haemophilus influenzae C.L.
  MIC: 4 µg/mL (≈ 3.24 µM)
Hemophilus influenzae; Table 18, 24 hours, Haemophilus influenzae Mx366
  MIC: 2 µg/mL (≈ 1.62 µM)
Hemophilus influenzae; Table 18, 24 hours, Haemophilus influenzae Mx371
  MIC: 2 µg/mL (≈ 1.62 µM)
S. pyogenes [12]
  ED50: 2.8 mg/kg
S. pneumoniae
  ED50: 1.68 mg/kg
Staph. aureus
  ED50: 1.4 mg/kg
[13]; Table 14, Peptostreptococcus intermedius 1264
  MIC: 1.0 µg/mL (≈ 0.811 µM)
[13]; Table 15, Ps. intermedius 1264
  MIC: ≤ 0.03 µg/mL
[13]; Table 15, Ps. intermedius 1524
  MIC: 0.5 µg/mL (≈ 0.405 µM)
[13]; Table 15, Ps. intermedius 1624
  MIC: 1.0 µg/mL (≈ 0.811 µM)
Clostridium difficile [14]; C. difficile 78
  MIC: 1.0 µg/mL (≈ 0.811 µM)
Clostridium difficile [14]; C. difficile 107B
  MIC: 1.0 µg/mL (≈ 0.811 µM)
Clostridium difficile [14]; C. difficile 111F
  MIC: 1.0 µg/mL (≈ 0.811 µM)
Clostridium difficile [14]; C. difficile 1153
  MIC: 1.0 µg/mL (≈ 0.811 µM)
Clostridium difficile [14]; C. difficile 2634
  MIC: 1.0 µg/mL (≈ 0.811 µM)
Clostridium difficile [14]; C. difficile 3424-5B
  MIC: 1.0 µg/mL (≈ 0.811 µM)
Clostridium difficile [14]; C. difficile 3816
  MIC: 1.0 µg/mL (≈ 0.811 µM)
Clostridium difficile [14]; C. difficile 3950
  MIC: 1.0 µg/mL (≈ 0.811 µM)
Clostridium difficile [14]; C. difficile 6890
  MIC: 1.0 µg/mL (≈ 0.811 µM)
Clostridium difficile [14]; C. difficile 8484
  MIC: 1.0 µg/mL (≈ 0.811 µM)
Clostridium difficile [14]; C. difficile A-194
  MIC: 1.0 µg/mL (≈ 0.811 µM)
Clostridium difficile [14]; C. difficile A-195
  MIC: 1.0 µg/mL (≈ 0.811 µM)
Clostridium difficile [14]; C. difficile A-196
  MIC: 1.0 µg/mL (≈ 0.811 µM)
Clostridium difficile [14]; C. difficile A-279
  MIC: 1.0 µg/mL (≈ 0.811 µM)
Clostridium difficile [14]; C. difficile A-280
  MIC: 1.0 µg/mL (≈ 0.811 µM)
Clostridium difficile [14]; C. difficile A-281
  MIC: 1.0 µg/mL (≈ 0.811 µM)
Clostridium difficile [14]; C. difficile WAL-2112
  MIC: 1.0 µg/mL (≈ 0.811 µM)
Clostridium difficile [14]; C. difficile WAL-3657
  MIC: 1.0 µg/mL (≈ 0.811 µM)
Clostridium difficile [14]; C. difficile WAL-4268
  MIC: 1.0 µg/mL (≈ 0.811 µM)
